Test results published in BigSolDB 2.1.

CN(C)Cc1c[nH]c2ccccc12
solubility (mole fraction)
Details	273.15 K	278.15 K	283.15 K	288.15 K	293.15 K	298.15 K	303.15 K	308.15 K	313.15 K
in 1,4-dioxane	–	–	–	0.0465	0.0511	0.0562	0.0623	0.0684	0.0746
in acetone	0.0231	0.026	0.0289	0.0327	0.0364	0.0402	0.0463	0.0523	0.0584
in acetonitrile	0.00447	0.00517	0.00621	0.00736	0.00858	0.00998	0.0116	0.0133	0.0151
in ethanol	0.0207	0.023	0.0254	0.0283	0.0317	0.0355	0.0399	0.0449	0.0508
in ethyl acetate	0.0165	0.0193	0.0219	0.0253	0.029	0.0327	0.0377	0.0428	0.0479
in isopropanol	0.013	0.0153	0.0178	0.0207	0.0235	0.0268	0.0305	0.0341	0.0377
in methanol	0.0274	0.0293	0.0315	0.0341	0.0371	0.0417	0.0474	0.0537	0.0615
in n-butanol	0.0305	0.0337	0.0369	0.0416	0.0464	0.0512	0.0565	0.0617	0.067
in n-octanol	0.0111	0.0132	0.0158	0.0187	0.0218	0.025	0.0284	0.0319	0.036
in n-propanol	0.0284	0.0315	0.0346	0.0381	0.0415	0.046	0.0515	0.0581	0.0629
in toluene	0.00345	0.00408	0.00456	0.00537	0.00647	0.00765	0.00905	0.0107	0.0126
